Laboratory results as given in patent US20060018825A1, “Probe for diseases with amyloid accumulation, amyloid-staining agent, remedy and preventive for diseases with amyloid accumulation and diagnostic probe and staining agent for neurofibrillary change” (BF RESEARCH INSTITUTE, INC., priority 2003, published 2006).
Entries after “also recorded” stand apart in the source; their conditions may differ. Each block holds one molecule with its values, some of them ahead of it.

How the values were obtained:
[1] = tested on: senile plaques and diffuse plaques (amyloid β-protein) in brain sections; assay: Staining of senile plaques and diffuse plaques in brain sections of an Alzheimer's disease patient; set-up: species or system human; settings: for staining properties in sections of the brain of a patient with Alzheimer's disease (senile plaques): 100 μM compound in 50% ethanol, compared with thioflavin S or anti-Aβ antibody 6F/3D on adjacent section; for staining of diffuse plaques in sections of the brain of a patient with Alzheimer's disease: 100 μM compound, diffuse plaques stained with anti-Aβ antibody 6F/3D on adjacent section
Source text: (§1) The following explanation is made about testing of staining properties of the compounds of the present invention on brain sections of an Alzheimer's disease patient.
(§2) (1) Temporal lobe or hippocampus specimens of the brain of a patient who had been definitely diagnosed pathologically as Alzheimer's disease and of a normal aged individual were used. These specimens were provided from Fukushimura Hospital, our joint research facility, with the consent to their use for research purpose received from the bereaved family of the patient (BF Research Laboratories Institutional Ethics Board Permission No. RS-99-02).
(§3) (2) The brain tissues embedded in paraffin were sliced 6 or 8 μm thick, extended on slides, and dried. The paraffin-embedded brain sections were deparaffined by washing sequentially with xylene (10 minutes, twice), 100% ethanol (15 minutes, twice), 95% ethanol (15 minutes, twice), and a stream of water (10 minutes).
(§4) (3) Pre-treatment for staining with compounds of the present invention involved treating the sections for eliminating self-fluorescence due to lipofuscin. First, the deparaffined sections were immersed into a 10% formalin solution for 60 minutes and washed with PBS for 5 minutes, followed by immersion into a 0.25% solution of KMnO4 for 90 minutes. After washing twice with PBS for 2 minutes each, the sections were immersed into a solution of 0.1% K2S2O5/oxalic acid for about 30 seconds each, and then washed three times with PBS for 2 minutes each.
(§5) (4) About 150 μl of a 100 μM solution of a compound of the present invention dissolved in 50% ethanol was added dropwise onto the sections and allowed the reaction to be carried out for 10 minutes. The sections were dipped into tap water five times, and then 50% ethanol three to five times, followed by immediate classification. After that, the sections were immersed into PBS for 60 minutes, enclosed with Fluor Save Reagent (Calbiochem), and examined under a fluorescent microscope (Nikon, Eclips E800) . Pictures were taken using a digital camera (Plaroid PDMCII).
Immunostaining was carried out as follows.
(a) Procedures for Immunostaining Amyloid β-Protein:
(1) After the sections were deparaffined, the sections were washed twice in distilled water for 2 minutes each, and tissues were marked with an Immunopen. About 150 μl of formic acid was added dropwise and allowed to stand at room temperature for 5 minutes. The sections were washed with tap water for 5 minutes and immersed into cold PBS-Tween 20 for 2 minutes, and then about 150 μl of a 0.05% trypsin solution was added dropwise and allowed the reaction to be carried out at 37° C. for 15 minutes.
(2) In an ice bath, the sections were washed twice with cold PBS-Tween 20 for 5 minutes each, and two drops of blocking serum were added and allowed the reaction to be carried out at 37° C. for 15 minutes. Excess water was removed, and about 150 μl of 6F/3D, an antibody specific to amyloid β-protein (DAKO; diluted 1:50) was added dropwise and allowed the reaction to be carried out at 37° C. for 1 hour.
(3) Further, after washing five times with cold PBS-Tween 20 for 2 minutes each, two drops of a solution of goat anti-mouse IgG (H+L) conjugated to biotin were added and allowed the reaction to be carried out at 37° C. for 1 hour. After that, the sections were washed three times with cold PBS-Tween 20 for 2 minutes each, and two drops of ABS solution (a streptavidin-biotin-peroxidase complex solution) were added and allowed to stand for 30 minutes. The sections were again washed three times with cold PBS-Tween 20 for 2 minutes each, and about 150 μl of DAB solution (prepared by dissolving 10 mg of DAB in 20 ml of 0.05 mol/l Tris-HCl buffer and adding 100 μl of 3% hydrogen peroxide immediately before use) were added and allowed the color to be developed sufficiently. Then, the sections were washed with distilled water for 1 minute to stop the reaction, enclosed, and examined under a microscope.

[2] = tested on: neurofibrillary tangles (tau protein) in brain sections; assay: Neurofibrillary tangles staining in brain sections of an Alzheimer's disease patient; set-up: species or system human; settings: for specificity of staining to tau protein / neurofibrillary tangles: compared with thioflavin S (FIG. 17)
Source text: as §1, §2, §3, §4, §5
(b) Procedures for Immunostaining Neurofibrillary Tangles:
(1) Immunostaining of neurofibrillary tangles was carried out as follows. After the sections were deparaffined, the sections were washed twice with distilled water for 2 minutes each, tissues were marked with an Immunopen. About 150 μl of 3% hydrogen peroxide (diluted in methanol) was added dropwise and allowed to stand at room temperature for 10 minutes.
(2) The sections were washed twice with cold PBS-Tween 20 for 5 minutes each, and two drops of blocking serum were added and allowed the reaction to be carried out at 37° C. for 30 minutes. Excess water was removed, and two drops of pSer422, an antibody specific to phosphorylated tau (Wako Phosphorylated Tau Immunohistostain Kit 299-57301) and allowed the reaction to be carried out overnight at 4° C.
(3) On the next day, the sections were washed five times with cold PBS-Tween 20 for 2 minutes each, and two drops of a solution of goat anti-rabbit IgG conjugated to biotin were added and allowed the reaction to be carried out at 37° C. for 1 hour. After that, the sections were washed three times with cold PBS-Tween 20 for 2 minutes each, and two drops of ABS solution (a streptavidin-biotin-peroxidase complex solution) were added and allowed to stand for 30 minutes.
(4) The sections were again washed three times with cold PBS-Tween 20 for 2 minutes each, and about 150 μl of DAB solution (prepared by dissolving 10 mg of DAB in 20 ml of 0.05 mol/l Tris-HCl buffer and adding 100 μl of 3% hydrogen peroxide immediately before use) were added and allowed the color to be developed sufficiently. Then, the sections were washed with distilled water for 1 minute to stop the reaction, enclosed, and examined under a microscope. The blocking serum, the solution of goat anti-rabbit IgG conjugated to biotin, and the ABC solution used were those contained in a Phosphorylated Tau Immunohistostain Kit (Wako 299-57301).

[3] = Acute toxicity testing by intravenous administration; assay type: in vivo; settings: male Crj:CD1 mice, observed up to 7 days
Experimental: (A) Testing of Acute Toxicity
Acute toxicity of the inventive compounds was determined employing mice by intravenous administration. Male Crj:CD1 mice were used and divided into groups of 4 mice, with an average weight of each group of 31-32 g. […] Up to 7 days after administration, observations were made.

[4] = Blood-brain barrier permeability after intravenous administration; assay type: in vivo; settings: Slc:ICR, mouse, not told; mice, two minutes after intravenous administration; read-out: content in Brain (blood-brain barrier permeability)
Source text: (B) Testing of Blood-Brain Barrier Permeability

Clearance from the brain = settings: in vivo

Molecule: CN(C)c1ncc(/C=C/c2nc3ccccc3s2)s1 [BF-196, 2-[2-(2-dimethylaminothiazol-5-yl)ethenyl]benzothiazole]
staining properties in sections of the brain of a patient with Alzheimer's disease (senile plaques) [1]: mainly stains senile plaques

Molecule: Nc1cnc(-c2ccc3ccccc3n2)o1 [BF-255]
specificity of staining to tau protein / neurofibrillary tangles [2]: high selectivity to neurofibrillary tangles

Molecule: CNc1ccc(/C=C/C=C/c2nc3ccccc3o2)cc1 [BF-185, 2-[[4-(4-methylamino)phenyl]-1,3-butadienyl)benzoxazole]
staining properties in sections of the brain of a patient with Alzheimer's disease (senile plaques) [1]: mainly stains senile plaques | staining of diffuse plaques in sections of the brain of a patient with Alzheimer's disease [1]: stains; also recorded: display affinity also for diffuse plaques and provide their clear staining | Maximum Tolerated Dose [3]: ≧10 mg/kg | tissue uptake at 2 min [4]: 3.9 %ID/g

Molecule: CNc1ccc(/C=C/C=C/c2nc3ccccc3s2)cc1 [BF-187, 2-[[4-(4-methylamino)phenyl]-1,3-butadienyl)benzothiazole]
staining properties in sections of the brain of a patient with Alzheimer's disease (senile plaques) [1]: stains senile plaques | Maximum Tolerated Dose [3]: ≧10 mg/kg | tissue uptake at 2 min [4]: 3.6 %ID/g

Molecule: Cc1nc(/C=C/c2cnc(N(C)C)s2)oc1C [BF-214, 2-(dimethylamino)-5-[2-(4,5-dimethyloxazol-2-yl)ethenyl]thiazole]
staining properties in sections of the brain of a patient with Alzheimer's disease (senile plaques) [1]: stains senile plaques

Molecule: Nc1ncc(-c2ccc3ccccc3n2)o1 [BF-239, 2-(2-aminooxazol-5-yl)quinoline]
specificity of staining to tau protein / neurofibrillary tangles [2]: high selectivity to neurofibrillary tangles

tissue uptake at 2 min [4]: 4.8 %ID/g
Molecule: CNc1ccc(/C=C/C=C/c2nc3ccccc3[nH]2)cc1 [BF-188, 2-[[4-(4-methylamino)phenyl]1,3-butadienyl]benzoimidazole]
staining properties in sections of the brain of a patient with Alzheimer's disease (senile plaques) [1]: stains senile plaques

Molecule: thioflavin S [reference compound]
staining properties in sections of the brain of a patient with Alzheimer's disease (senile plaques) [1]: stains both senile plaques and neurofibrillary tangles | specificity of staining to tau protein / neurofibrillary tangles [2]: provided enough staining of proteins other than tau protein

Molecule: CN(C)c1ncc(-c2ccc3ccccc3n2)o1 [BF-221, 2-(2-dimethylaminooxazol-5-yl)quinoline]
staining of phosphorylated tau protein recognized by antibody pSer422 ([2]; adjacent section immunostained with pSer422 (FIG. 18)): stained phosphorylated tau protein | specificity of staining to tau protein / neurofibrillary tangles [2]: high specificity to tau protein

Molecule: CN(C)c1ncc(-c2nc3ccccc3o2)s1 [BF-225, 2-(2-dimethylaminothiazol-5-yl)benzoxazole]
Maximum Tolerated Dose [3]: ≧10 mg/kg

Molecule: Nc1ccc(/C=C/C=C/c2nc3ccc(O)cc3o2)c(O)c1 [BF-201]
staining properties in sections of the brain of a patient with Alzheimer's disease (senile plaques) [1]: stains senile plaques | MTD at 7 days ([3]; mouse, in vivo, read-out: Maximum Tolerated Dose): ≥ 10 mg/kg

Molecule: CNc1ccc(/C=C/C=C/C=C/c2ccc3ccccc3n2)cc1 [BF-189, 1-(4-methylaminophenyl)-6-(2-quinolyl)-1,3,5-hexatrien]
staining properties in sections of the brain of a patient with Alzheimer's disease (senile plaques) [1]: stains senile plaques

Molecule: O=C(O)c1cc(/C=C/c2ccc(/C=C/c3ccc(O)c(C(=O)O)c3)c(Br)c2)ccc1O [BSB, reference compound]
staining properties in sections of the brain of a patient with Alzheimer's disease (senile plaques) [1]: stains both senile plaques and neurofibrillary tangles

clearance from the brain (Clearance from the brain): rapid clearance from the brain
Molecule: CN(C)c1ncc(/C=C/c2nc3ccc(OCCF)cc3o2)s1 [BF-227, 2-[2-(2-dimethylaminothiazol-5-yl)ethenyl]-6-(2-fluoroethyloxy)benzoxazole]
staining properties in sections of the brain of a patient with Alzheimer's disease (senile plaques) [1]: mainly stains senile plaques | staining of diffuse plaques in sections of the brain of a patient with Alzheimer's disease [1]: stains; also recorded: display affinity also for diffuse plaques and provide their clear staining

Molecule: Nc1ncc(-c2ccc3ccccc3n2)s1 [BF-240, 2-(2-aminothiazol-5-yl)quinoline]
specificity of staining to tau protein / neurofibrillary tangles [2]: high selectivity to neurofibrillary tangles

Molecule: CN(C)c1ncc(/C=C/c2nc3ccccc3o2)s1 [BF-197, 2-[2-(2-dimethylaminothiazol-5-yl)ethenyl]benzoxazole]
staining properties in sections of the brain of a patient with Alzheimer's disease (senile plaques) [1]: mainly stains senile plaques
